Publication PMC7145288, “New Peptide-Based Pharmacophore Activates 20S Proteasome” (Molecules, 2020)
“Also recorded” adds a separate entry of the source.

Experiments:
[1] = target: T1, core proteasome, trypsin-like (T-L) activity (Homo sapiens, UniProt P25787+P60900); experiment: T-L peptidase activity of latent 20S proteasome (Boc-LRR-AMC); type: biochemical; details: 100 μM Boc-LRR-AMC, n = 3–4
T1 construct: Human housekeeping core (20S) proteasome purified from erythrocytes; purchased Boston Biochem, Inc. or Enzo Life Sciences, Inc; host or cells: human erythrocytes (natural source)
Protocol: (§1) Human housekeeping core (20S) proteasome purified from erythrocytes was purchased from Boston Biochem, Inc. (Cambridge, MA) or from Enzo Life Sciences, Inc. (Farmingdale, NY). Multiple batches of the proteasomes were used and performed reproducibly. The stock proteasome was diluted to 0.2 mg/mL working solution in “dilution buffer” (50 mM Tris/HCl, pH 8, 20% glycerol). The following model peptide substrates, all releasing fluorescent 7-amino-4-methylcoumarin (AMC) reporter group after cleavage, were used: succinyl-LeuLeuValTyr-AMC (for the ChT-L peptidase; SucLLVY-AMC; Bachem Bioscience Inc., Philadelphia, PA), butoxycarbonyl-LeuArgArg-AMC (T-L; Bachem Bioscience Inc., Philadelphia, PA) and carbobenzoxy- LeuLeuGlu-AMC (PGPH; Enzo Life Sciences Inc., Farmingdale, NY). The substrates were used at concentration of 50 μM (ChT-L) or 100 μM (T-L, PGPH). […] After mixing, the plate was transferred to a Fluoroskan Ascent plate reader (Thermo Fisher Scientific Inc., Waltham, MA) for 1 h (37 °C), with fluorescence readouts once per minute. […] The reaction rates were calculated from a linear segment of kinetic curves constructed from measurements in 1-min intervals. Reaction rates were calculated using a linear fit performed with the Slope Analyser and Enzyme Kinetics applications launched within Origin Pro 2019 (OriginLab Corporation, Northampton, MA). […]

[2] = target: T2, core proteasome, post glutamyl peptide hydrolyzing (PGPH) activity (Homo sapiens, UniProt P25787+P60900); experiment: PGPH peptidase activity of latent 20S proteasome (Z-LLE-AMC); type: biochemical; details: 100 μM Z-LLE-AMC, n = 3–4
T2 construct: Human housekeeping core (20S) proteasome purified from erythrocytes; purchased Boston Biochem, Inc. or Enzo Life Sciences, Inc; host or cells: human erythrocytes (natural source)
Protocol: as §1

[3] = test system: animal models of Alzheimer's disease; details: ref 15 (Chocron et al.); cited from earlier work
Excerpt: In the light of significant proteasome-enhancing effects of TAT peptides observed both in cellulo (Figure 5 and [15]) and in vivo [15], there is a crucial question of how they influence proteolytic activity in the most widespread form of the proteasome, the 26S holoenzyme. The most-explored TAT compounds are proposed to dock in the α1/α2 pocket, which, alongside the α5/α6 pocket, is permanently occupied in all conformational forms of the 26S assembly. Therefore, activation of the core already decorated with two 19S modules seems excluded. Still, in our in vitro experiments, a signif ...

Row | Structure (SMILES) | Effect on T-L activity (in words) [1] | Effect on PGPH activity (in words) [2] | Proteins with increased turnover on treatment [3]
1 | N=C(N)NCCC[C@H](NC(=O)CN)C(=O)N[C@@H](CCCCN)C(=O)N[C@@H](CCCCN)C(=O)N[C@@H](CCCNC(=N)N)C(=O)N[C@@H](CCCNC(=N)N)C(=O)N[C@@H](CCC(N)=O)C(=O)N1Cc2ccccc2C[C@H]1C(=O)N1[C@@H](C(=O)N[C@@H](CCCNC(=N)N)C(=O)N2CCC[C@H]2C(=O)N[C@@H](CO)C(=O)O)C[C@H]2CCCC[C@H]21 [(5)] | weak inhibitory effects; also recorded: did not seem to significantly affect | weak inhibitory effects; also recorded: did not seem to significantly affect | APP and β secretase
2 | NCCCC[C@H](NC(=O)[C@H](CCCCN)NC(=O)[C@H](CCCCN)NC(=O)c1cc(NC(=O)[C@H](CCCCN)NC(=O)[C@H](CCCCN)NC(=O)[C@@H](N)CCCCN)cc(NC(=O)[C@H](CCCCN)NC(=O)[C@H](CCCCN)NC(=O)[C@@H](N)CCCCN)c1)C(=O)O [(8)] | weak inhibitory effects; also recorded: did not seem to significantly affect | weak inhibitory effects; also recorded: did not seem to significantly affect | APP and β secretase
